Assay results reported in patent US4963565A, “In vivo treatment of mycobacterial infections with 6-cyclo octylamino-5,8-quinoline quinone” (priority 1986, dated 1990).

Legend:
[1] = test system: blood clotting; experiment: Effect on blood clotting; assay type: in vivo; conditions: oral, intraperitoneal and intramuscular, varying amounts, FIG. 8
Experimental: Due to its relationship to Vitamin K, there was some concern as to the effect CQQ would have on blood clotting. Varying amounts of CQQ were administered orally, intraperitoneally, and intramuscularly.

[2] = test system: M. intracellulare; experiment: In vivo chemotherapeutic activity against M. intracellulare in the Beige mouse model (Example II); set-up: species or system M. intracellulare (host: Beige mice); conditions: 10 mg/kg daily orally; 1, 2 and 4 weeks (P 0.05), FIG. 2
[3] = test system: M. intracellulare; experiment: In vitro activity against serovars of M. intracellulare, radiometric (Bactec) method; assay type: cell-based
Experimental: A study of the effect of CQQ on different serovars of M. intracellulare in vitro was performed using the radiometric (Bactec) method. Maximum growth index (GI) of 999 was determined (for control models) in terms of the number of days necessary for the culture to reach this stage. GI is measured using the special instrument which reads the amount of ^14 C labelled CO2 liberated from the strains using the ^14 C labelled substrates.

[4] = test system: C57Bl/6 mice; experiment: Acute toxicity in C57Bl/6 mice; assay type: in vivo; conditions: 70 kg subject, extrapolated from mouse LD50
Experimental: (§1) Studies were performed to obtain toxicity data. […] Extrapolating, this corresponds to an LD50 of approximately 40 gr for a 70 kg subject. For chronic toxicity studies both C57Bl/6 and Beige mice were administered doses of 40 mg/kg/day, and intraperitoneal doses over 30 mg/kg for more than 60 days.

[5] = Acute toxicity in C57Bl/6 mice; assay type: in vivo; conditions: mouse, in vivo, ip; C57Bl/6 mice, intraperitoneal
Experimental: as §1

[6] = test system: C57Bl/6 and Beige mice; experiment: Chronic toxicity in C57Bl/6 and Beige mice; assay type: in vivo; conditions: 40 mg/kg/day, and intraperitoneal doses over 30 mg/kg, more than 60 days
Experimental: as §1

[7] = test system: lymphocytes; experiment: Effect on chromosomal structures in lymphocytes; assay type: cell-based, human; conditions: 0.5 ml of 10 mcg/ml solution
Experimental: In order to determine the effect of CQQ on chromosomes, blood was collected from a healthy volunteer, and lymphocytes were isolated from the sample. These were cultivated in a folate deficient medium, and after approximately 24 hours of cultivation, 0.5 ml of a solution of CQQ (10 mcg/ml) was added to the culture. Incubation at 37° C. for 72 hours followed. The lymphocytes were then harvested, following routine laboratory porocedures and were stained with Giemsa stain.

[8] = test system: Mycobacterium intracellulare strain 571-8; experiment: In vivo chemotherapeutic activity against M. intracellulare, acute model in Beige mice (Example 1); set-up: species or system M. intracellulare (host: Beige mice, C57Bl/6/bg/bg); conditions: FIG. 1
[9] = test system: M. intracellulare (571-8 strain); experiment: In vivo activity of different doses against acute M. intracellulare infections in Beige mice (Example III); set-up: species or system M. intracellulare (host: Beige mice)
[10] = test system: M. tuberculosis; conditions: Gangadharam et al.; cited from earlier work
[11] = 8.0 mcg/ml, serovar 3, strain 7-17
[12] = 8.0 mcg/ml, serovar 3, strain 9-75
[13] = 8.0 mcg/ml, serovar 3, strain 12-1
[14] = 8.0 mcg/ml, serovar 3, strain 971-8
[15] = 8.0 mcg/ml, serovar 4, strain 5-13
[16] = 8.0 mcg/ml, serovar 4, strain 7-55
[17] = 8.0 mcg/ml, serovar 4, strain 8-50
[18] = 8.0 mcg/ml, serovar 4, strain TMC1463
[19] = 8.0 mcg/ml, serovar 9, strain 2-10
[20] = 8.0 mcg/ml, serovar 9, strain 6-38
[21] = 8.0 mcg/ml, serovar 9, strain 7-25
[22] = 8.0 mcg/ml, serovar 9, strain 1784-286
[23] = 8.0 mcg/ml, serovar 14, strain 7-3
[24] = 8.0 mcg/ml, serovar 14, strain 7-43
[25] = 8.0 mcg/ml, serovar 14, strain BOONE
[26] = 8.0 mcg/ml, serovar 14, strain P-39
[27] = 16.0 mcg/ml, serovar 3, strain 7-17
[28] = 16.0 mcg/ml, serovar 3, strain 9-75
[29] = 16.0 mcg/ml, serovar 3, strain 12-1
[30] = 16.0 mcg/ml, serovar 3, strain 971-8
[31] = 16.0 mcg/ml, serovar 4, strain 5-13
[32] = 16.0 mcg/ml, serovar 4, strain 7-55
[33] = 16.0 mcg/ml, serovar 4, strain 8-50
[34] = 16.0 mcg/ml, serovar 4, strain TMC1463
[35] = 16.0 mcg/ml, serovar 9, strain 2-10
[36] = 16.0 mcg/ml, serovar 9, strain 6-38
[37] = 16.0 mcg/ml, serovar 9, strain 7-25
[38] = 16.0 mcg/ml, serovar 9, strain 1784-286
[39] = 16.0 mcg/ml, serovar 14, strain 7-3
[40] = 16.0 mcg/ml, serovar 14, strain 7-43
[41] = 16.0 mcg/ml, serovar 14, strain BOONE
[42] = 16.0 mcg/ml, serovar 14, strain P-39

O=C1C(NC2CCCCCCC2)=CC(=O)c2ncccc21 [CQQ, 6-cyclo octylamino-5,8-quinoline quinone]
Blood clotting time [1]: little change in blood clotting time | Antimycobacterial activity, CFU counts from spleen and lungs vs controls [2]: considerable antimycobactgerial activity with statistically significant differences | Day maximum GI achieved [3, 11]: 2 days | Maximum GI [3, 11]: 16 | Day maximum GI achieved [3, 12]: 2 days | Maximum GI [3, 12]: 22 | Day maximum GI achieved [3, 13]: 2 days | Maximum GI [3, 13]: 4 | Day maximum GI achieved [3, 14]: 3 days | Maximum GI [3, 14]: 20 | Day maximum GI achieved [3, 15]: 1 days | Maximum GI [3, 15]: 14 | Day maximum GI achieved [3, 16]: 2 days | Maximum GI [3, 16]: 7 | Day maximum GI achieved [3, 17]: 2 days | Maximum GI [3, 17]: 15 | Day maximum GI achieved [3, 18]: 1 days | Maximum GI [3, 18]: 6 | Day maximum GI achieved [3, 19]: 1 days | Maximum GI [3, 19]: 14 | Day maximum GI achieved [3, 20]: 1 days | Maximum GI [3, 20]: 13 | Day maximum GI achieved [3, 21]: 4 days | Maximum GI [3, 21]: 33 | Day maximum GI achieved [3, 22]: 1 days | Maximum GI [3, 22]: 9 | Day maximum GI achieved [3, 23]: 2 days | Maximum GI [3, 23]: 5 | Day maximum GI achieved [3, 24]: 1 days | Maximum GI [3, 24]: 1 | Day maximum GI achieved [3, 25]: 1 days | Maximum GI [3, 25]: 13 | Day maximum GI achieved [3, 26]: 1 days | Maximum GI [3, 26]: 21 | Inhibition of the strains ([3]; 16.0 and 8.0 mcg/ml): Complete inhibition | Day maximum GI achieved [3, 27]: 1 days | Maximum GI [3, 27]: 5 | Day maximum GI achieved [3, 28]: 1 days | Maximum GI [3, 28]: 14 | Day maximum GI achieved [3, 29]: 2 days | Maximum GI [3, 29]: 6 | Day maximum GI achieved [3, 30]: 1 days | Maximum GI [3, 30]: 8 | Day maximum GI achieved [3, 31]: 1 days | Maximum GI [3, 31]: 4 | Day maximum GI achieved [3, 32]: 2 days | Maximum GI [3, 32]: 4 | Day maximum GI achieved [3, 33]: 1 days | Maximum GI [3, 33]: 6 | Day maximum GI achieved [3, 34]: 1 days | Maximum GI [3, 34]: 5 | Day maximum GI achieved [3, 35]: 1 days | Maximum GI [3, 35]: 12 | Day maximum GI achieved [3, 36]: 1 days | Maximum GI [3, 36]: 6 | Day maximum GI achieved [3, 37]: 1 days | Maximum GI [3, 37]: 7 | Day maximum GI achieved [3, 38]: 1 days | Maximum GI [3, 38]: 5 | Day maximum GI achieved [3, 39]: 1 days | Maximum GI [3, 39]: 4 | Day maximum GI achieved [3, 40]: 1 days | Maximum GI [3, 40]: 9 | Day maximum GI achieved [3, 41]: 1 days | Maximum GI [3, 41]: 7 | Day maximum GI achieved [3, 42]: 1 days | Maximum GI [3, 42]: 22 | Effect on GI rates of all M. intracellulare strains ([3]; both concentrations (16.0 and 8.0 mcg/ml)): dramatic decrease in GI rates for all M. intracellulare strains | LD50 extrapolated to a 70 kg subject [4]: approximately 40 gr | LD50 [5]: 564 mg/kg | Visible toxic manifestation or death [6]: No visible toxic manifestation or death | Assessment of chromosomal breaks ([7]; 72 hours): fully within the normal limits | Total number of chromosomal breaks ([7]; 72 hours at 37° C., at least 50 cells counted): 7 | Cells with chromosomal breaks ([7]; 72 hours at 37° C., of at least 50 cells counted): 5 | Activity vs infected untreated control ([8]; 10 mg/kg orally daily, each time point (P 0.05)): considerable activity with a statistically significant difference | Activity compared with ansamycin ([8]; both 10 mg/kg orally daily): better than that of ansamycin | Dose comparison, 20 vs 10 mg/kg ([9]; 20 mg/kg vs 10 mg/kg): The dose of 20 mg/kg is better than 10 mg/kg dose | Inhibitory activity, reduction of CFU counts from spleens and lungs ([9]; 10 or 20 mg/kg, FIGS. 3 and 4): considerable inhibitory activity | Duration of statistically significant differences in CFU counts ([9]; 10 or 20 mg/kg, spleens and lungs (P 0.05)): up to 6 weeks | Effect in lung vs spleen ([9]; FIG. 4 vs FIG. 3): more pronounced in the lung (FIG. 4) than in the spleen | In vitro effectiveness against M. tuberculosis [10]: effective against M. intracellulare and M. tuberculosis in vitro
